From patent US20250017935A1, “7,8-DIHYDRO-5H-1,6-NAPHTHYRIDINE DERIVATIVES AS POSITIVE ALLOSTERIC MODULATORS OF THE MUSCARINIC ACETYLCHOLINE RECEPTOR M4 FOR TREATING NEUROLOGICAL AND PSYCHIATRIC DISORDERS” (Vanderbilt University, priority 2021, published 2025)

Target: T1, Human M4 (Homo sapiens, UniProt P08173)
T1 construct: expressed in transfected cells; host or cells: CHO-K1 (ATCC), stably expressing hM4 and Gqi5
T1 sequence (P08173 1-479): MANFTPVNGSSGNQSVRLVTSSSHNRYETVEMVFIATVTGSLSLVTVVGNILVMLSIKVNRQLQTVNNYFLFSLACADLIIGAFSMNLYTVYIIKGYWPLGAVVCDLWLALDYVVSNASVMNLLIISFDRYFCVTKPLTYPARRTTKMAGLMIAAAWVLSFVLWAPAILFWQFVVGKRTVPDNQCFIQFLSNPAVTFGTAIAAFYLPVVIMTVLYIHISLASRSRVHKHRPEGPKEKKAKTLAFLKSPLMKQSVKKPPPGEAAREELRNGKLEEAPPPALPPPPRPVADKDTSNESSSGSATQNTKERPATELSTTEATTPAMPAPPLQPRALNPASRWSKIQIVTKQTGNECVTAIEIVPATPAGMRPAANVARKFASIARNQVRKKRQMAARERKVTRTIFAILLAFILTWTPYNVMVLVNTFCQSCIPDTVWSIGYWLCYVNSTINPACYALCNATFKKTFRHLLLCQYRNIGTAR
Assay: mAChR M4 cell-based functional assay (calcium flux, potentiation of EC20 acetylcholine response) in hM4-Gqi5 CHO-K1 cells
Conditions: for Emax at 30 µM: % ACh maximum at 30 μM, human M4 CHO-K1 cells; for EC50: CHO-K1 cells transfected with human M4 and Gqi5, positive allosteric modulator activity, EC20 acetylcholine
Protocol: Human M4 cDNA, along with the chimeric G protein Gqi5, were transfected into Chinese hamster ovary (CHO-K1) cells purchased from the American Type Culture Collection using commercially available Lipofectamine 2000 transfection reagent (Dalby, B. et al., Methods (2004) 33(2), 95-103). hM4-Gqi5 cells were grown in Ham's F-12 medium containing 10% heat-inactivated fetal bovine serum (FBS), 20 mM HEPES, 50 μg/mL G418 sulfate (CAS #108321-42-2), and 500 μg/mL Hygromycin B. rM4-Gqi5 cells were grown in DMEM containing 10% heat-inactivated FBS, 20 mM HEPES, 400 μg/mL G418 sulfate, and 500 μg/mL Hygromycin B.
For high throughput measurement of agonist-evoked increases in intracellular calcium, CHO-K1 cells stably expressing muscarinic receptors were plated in growth medium lacking G418 sulfate and hygromycin at 15,000 cells/20 μL/well in Greiner 384-well black-walled, tissue culture (TC)-treated, clear-bottom plates (VWR). Cells were incubated overnight at 37° C. and 5% CO2. The next day, cells were washed using an ELX 405 (BioTek) with assay buffer; the final volume was then aspirated to 20 μL. Next, 20 μL of a 2.3 μM stock of Fluo-4/acetoxymethyl ester (Invitrogen, Carlsbad, CA), prepared as a 2.3 mM stock in DMSO and mixed in a 1:1 ratio with 10% (w/v) Pluronic F-127 and diluted in assay buffer, was added to the wells and the cell plates were incubated for 50 minutes at 37° C. and 5% CO2. Dye was removed by washing with the ELX 405 and the final volume was aspirated to 20 μL. Compound master plates were formatted in an 11 point concentration-response curve (CRC) format (1:3 dilutions) in 100% DMSO with a starting concentration of 10 mM using a BRAVO liquid handler (Agilent). Test compound CRCs were then transferred to daughter plates (240 nL) using the Echo acoustic plate reformatter (Labcyte, Sunnyvale, CA) and then diluted into assay buffer (40 μL) to a 2× stock using a Thermo Fisher Combi (Thermo Fisher Scientific, Waltham, MA).
Calcium flux was measured using the Functional Drug Screening System (FDSS) 6000 or 7000 (Hamamatsu Corporation, Tokyo, Japan) as an increase in the fluorescent static ratio. Compounds were applied to cells (20 μL, 2×) using the automated system of the FDSS at 2-4 seconds into the protocol and the data were collected at 1 Hz. […] Agonist activity was analyzed as a concentration-dependent increase in calcium mobilization upon compound addition. Positive allosteric modulator activity was analyzed as a concentration-dependent increase in the EC20 acetylcholine response. With the acetylcholine EC20 set as baseline, the test compound EC50 is determined as the concentration that produces an increase above baseline of 50% of the maximum increase in acetylcholine response elicted by the test compound. Antagonist activity was analyzed as a concentration-dependent decrease in the EC80 acetylcholine response. Concentration-response curves were generated using a four-parameter logistical equation in XLFit curve fitting software (IDBS, Bridgewater, NJ) for Excel (Microsoft, Redmond, WA) or Prism (GraphPad Software, Inc., San Diego, CA).
Compounds were synthesized as described above. Activity (EC50 and Emax) was determined in the mAChR M4 cell-based functional assay as described above and the data are shown in Table 5. The compound numbers correspond to the compound numbers used in Examples 1-13 and Tables 1, 2, and 3.

Row | SMILES | Emax at 30 µM [%] | EC50 [nM]
1 | Cc1sc2ncnc(N3CCc4ncc(C(F)(F)F)cc4C3)c2c1C [Compound 1, 5,6-dimethyl-4-[3-(trifluoromethyl)-7,8-dihydro-5H-1,6-naphthyridin-6-yl]thieno[2,3-d]pyrimidine] | 85 | 610
2 | Cc1cc2c(N3CCc4ncc(Oc5ccccc5F)cc4C3)ncnc2s1 [Compound 3, 4-[3-(2-fluorophenoxy)-7,8-dihydro-5H-1,6-naphthyridin-6-yl]-6-methyl-thieno[2,3-d]pyrimidine] | 80 | 630
3 | Cc1csc2c(N3CCc4ncc(-c5cnn(C6CC6)c5)cc4C3)ncnc12 [Compound 4, 4-[3-(1-cyclopropylpyrazol-4-yl)-7,8-dihydro-5H-1,6-naphthyridin-6-yl]-7-methyl-thieno[3,2-d]pyrimidine] | 43 | 770
4 | Cc1nc(N2CCc3ncc(C(F)(F)F)cc3C2)c2c(C)c(C)sc2n1 [Compound 7, 2,5,6-trimethyl-4-[3-(trifluoromethyl)-7,8-dihydro-5H-1,6-naphthyridin-6-yl]thieno[2,3-d]pyrimidine] | 88 | 3280
5 | Cc1csc2c(N3CCc4ncc(C(F)(F)F)cc4C3)ncnc12 [Compound 11, 7-methyl-4-[3-(trifluoromethyl)-7,8-dihydro-5H-1,6-naphthyridin-6-yl]thieno[3,2-d]pyrimidine] | 63 | 500
6 | Cc1ccc(-c2cnc3c(c2)CN(c2ncnc4c(C)csc24)CC3)cn1 [Compound 15, 7-methyl-4-[3-(6-methyl-3-pyridyl)-7,8-dihydro-5H-1,6-naphthyridin-6-yl]thieno[3,2-d]pyrimidine] | 45 | 550
7 | Cc1ncc(-c2cnc3c(c2)CN(c2ncnc4scc(C)c24)CC3)s1 [Compound 18, 5-methyl-4-[3-(2-methylthiazol-5-yl)-7,8-dihydro-5H-1,6-naphthyridin-6-yl]thieno[2,3-d]pyrimidine] | 72 | 470
8 | Cc1ccc(Oc2cnc3c(c2)CN(c2ncnc4scc(C)c24)CC3)c(F)c1 [Compound 19, 4-[3-(2-fluoro-4-methyl-phenoxy)-7,8-dihydro-5H-1,6-naphthyridin-6-yl]-5-methyl-thieno[2,3-d]pyrimidine] | 58 | 1840
9 | Cc1cc2c(N3CCc4ncc(-c5cnn(C6CC6)c5)cc4C3)ncnc2s1 [Compound 20, 4-[3-(1-cyclopropylpyrazol-4-yl)-7,8-dihydro-5H-1,6-naphthyridin-6-yl]-6-methyl-thieno[2,3-d]pyrimidine] | 91 | 470
10 | Cc1nn(C)cc1-c1cnc2c(c1)CN(c1ncnc3c(C)csc13)CC2 [Compound 23, 4-[3-(1,3-dimethylpyrazol-4-yl)-7,8-dihydro-5H-1,6-naphthyridin-6-yl]-7-methyl-thieno[3,2-d]pyrimidine] | 59 | 560

These reach a lower EC50. Values come first.

Row | Emax at 30 µM [%] | EC50 [nM] | SMILES
11 | 35 | 310 | Cc1ncc(-c2cnc3c(c2)CN(c2ncnc4c(C)csc24)CC3)s1 [Compound 5, 7-methyl-4-[3-(2-methylthiazol-5-yl)-7,8-dihydro-5H-1,6-naphthyridin-6-yl]thieno[3,2-d]pyrimidine]
12 | 85 | 280 | Cc1csc2c(N3CCc4ncc(N5CCCn6nccc65)cc4C3)ncnc12 [Compound 22, 4-[3-(6,7-dihydro-5H-pyrazolo[1,5-a]pyrimidin-4-yl)-7,8-dihydro-5H-1,6-naphthyridin-6-yl]-7-methyl-thieno[3,2-d]pyrimidine]
13 | 88 | 250 | Cc1cc2c(N3CCc4ncc(-c5cnc(C)s5)cc4C3)ncnc2s1 [Compound 21, 6-methyl-4-[3-(2-methylthiazol-5-yl)-7,8-dihydro-5H-1,6-naphthyridin-6-yl]thieno[2,3-d]pyrimidine]
14 | 74 | 230 | Cc1cc2c(N3CCc4ncc(-c5cn(C)nc5C)cc4C3)ncnc2s1 [Compound 12, 4-[3-(1,3-dimethylpyrazol-4-yl)-7,8-dihydro-5H-1,6-naphthyridin-6-yl]-6-methyl-thieno[2,3-d]pyrimidine]
15 | 70 | 220 | Cc1csc2c(N3CCc4ncc(N5CCOc6ncccc65)cc4C3)ncnc12 [Compound 24, 1-[6-(7-methylthieno[3,2-d]pyrimidin-4-yl)-7,8-dihydro-5H-1,6-naphthyridin-3-yl]-2,3-dihydropyrido[2,3-b][1,4]oxazine]
16 | 97 | 190 | Cc1ccc(-c2cnc3c(c2)CN(c2ncnc4sc(C)cc24)CC3)cn1 [Compound 14, 6-methyl-4-[3-(6-methyl-3-pyridyl)-7,8-dihydro-5H-1,6-naphthyridin-6-yl]thieno[2,3-d]pyrimidine]
17 | 79 | 180 | Cc1ccc(-c2cnc3c(c2)CN(c2ncnc4scc(C)c24)CC3)cn1 [Compound 17, 5-methyl-4-[3-(6-methyl-3-pyridyl)-7,8-dihydro-5H-1,6-naphthyridin-6-yl]thieno[2,3-d]pyrimidine]
18 | 79 | 120 | FC(F)(F)c1cnc2c(c1)CN(c1ncnc3ccsc13)CC2 [Compound 10, 4-[3-(trifluoromethyl)-7,8-dihydro-5H-1,6-naphthyridin-6-yl]thieno[3,2-d]pyrimidine]
19 | 45 | 100 | Cc1ncc(-c2cnc3c(c2)CN(c2ncnc4sccc24)CC3)s1 [Compound 6, 4-[3-(2-methylthiazol-5-yl)-7,8-dihydro-5H-1,6-naphthyridin-6-yl]thieno[2,3-d]pyrimidine]
20 | 121 | 70 | Cc1cc2c(N3CCc4ncc(N5CCOc6ncccc65)cc4C3)ncnc2s1 [Compound 13, 1-[6-(6-methylthieno[2,3-d]pyrimidin-4-yl)-7,8-dihydro-5H-1,6-naphthyridin-3-yl]-2,3-dihydropyrido[2,3-b][1,4]oxazine]
21 | 91 | 60 | Cc1csc2ncnc(N3CCc4ncc(N5CCOc6ncccc65)cc4C3)c12 [Compound 16, 1-[6-(5-methylthieno[2,3-d]pyrimidin-4-yl)-7,8-dihydro-5H-1,6-naphthyridin-3-yl]-2,3-dihydropyrido[2,3-b][1,4]oxazine]
22 | 106 | 30 | Cc1cc2c(N3CCc4ncc(N5CCCn6nccc65)cc4C3)ncnc2s1 [Compound 2, 4-[3-(6,7-dihydro-5H-pyrazolo[1,5-a]pyrimidin-4-yl)-7,8-dihydro-5H-1,6-naphthyridin-6-yl]-6-methyl-thieno[2,3-d]pyrimidine]
23 | 78 | 30 | Cc1csc2ncnc(N3CCc4ncc(C(F)(F)F)cc4C3)c12 [Compound 8, 5-methyl-4-[3-(trifluoromethyl)-7,8-dihydro-5H-1,6-naphthyridin-6-yl]thieno[2,3-d]pyrimidine]
24 | 76 | 30 | Cc1cc2c(N3CCc4ncc(C(F)(F)F)cc4C3)ncnc2s1 [Compound 9, 6-methyl-4-[3-(trifluoromethyl)-7,8-dihydro-5H-1,6-naphthyridin-6-yl]thieno[2,3-d]pyrimidine]
